Several values for one entry are separate records, joined by “and”; a condition that tells them apart may be missing. Identical values can stand only once. Like-named read-outs stand apart in the source and are kept apart here.
Key:
hCB1R [1] = target: T1, hCB1R (Homo sapiens, UniProt P21554); experiment: cell-based; type: cell-based
T1 construct: host or cells: CHO

hCB1R [2] = target: T1, hCB1R; experiment: cell-based; type: cell-based; remark: listed apart in the source
Human recombinant TRPV1 = target: T2, Human recombinant TRPV1 (Homo sapiens, UniProt Q8NER1); experiment: cell-based; type: cell-based; settings: for IC50: read-out: TRPV1 IC50 for antagonism or desensitization
T2 construct: expressed in transfected cells; host or cells: HEK293 (TRPV1-HEK-293, gift from John Davis, GlaxoSmithKline)
T2 sequence (Q8NER1 whole entry): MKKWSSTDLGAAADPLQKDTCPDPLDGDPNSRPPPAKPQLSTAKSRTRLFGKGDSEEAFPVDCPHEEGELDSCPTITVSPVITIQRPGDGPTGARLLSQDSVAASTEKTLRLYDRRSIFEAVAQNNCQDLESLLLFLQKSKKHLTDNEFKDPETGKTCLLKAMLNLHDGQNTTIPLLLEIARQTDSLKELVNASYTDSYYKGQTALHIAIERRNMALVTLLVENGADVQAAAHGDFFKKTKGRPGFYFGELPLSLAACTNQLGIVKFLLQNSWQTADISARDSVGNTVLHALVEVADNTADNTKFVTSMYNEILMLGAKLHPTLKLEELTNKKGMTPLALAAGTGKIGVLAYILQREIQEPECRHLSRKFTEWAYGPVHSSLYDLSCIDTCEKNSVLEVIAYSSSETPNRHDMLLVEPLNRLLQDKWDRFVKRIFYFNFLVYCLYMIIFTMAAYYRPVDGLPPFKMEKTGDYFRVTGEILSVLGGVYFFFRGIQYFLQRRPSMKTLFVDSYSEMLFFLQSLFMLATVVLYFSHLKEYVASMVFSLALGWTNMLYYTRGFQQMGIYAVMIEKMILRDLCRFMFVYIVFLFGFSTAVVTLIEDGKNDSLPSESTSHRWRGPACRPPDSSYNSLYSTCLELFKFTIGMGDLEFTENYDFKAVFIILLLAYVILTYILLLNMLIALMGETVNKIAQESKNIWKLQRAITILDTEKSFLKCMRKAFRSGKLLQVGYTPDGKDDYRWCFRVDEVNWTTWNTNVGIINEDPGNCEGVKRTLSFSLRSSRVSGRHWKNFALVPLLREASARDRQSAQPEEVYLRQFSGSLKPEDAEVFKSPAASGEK

Rat recombinant TRPV2 = target: T3, Rat recombinant TRPV2 (Rattus norvegicus, UniProt Q9WUD2); experiment: cell-based; type: cell-based; settings: for IC50: vs LPC 3μM, read-out: TRPV2 IC50 for antagonism or desensitization
T3 construct: expressed in transfected cells; host or cells: HEK293 (plasmid a gift from HB Bradshaw, Indiana University)
T3 sequence (Q9WUD2 1-761): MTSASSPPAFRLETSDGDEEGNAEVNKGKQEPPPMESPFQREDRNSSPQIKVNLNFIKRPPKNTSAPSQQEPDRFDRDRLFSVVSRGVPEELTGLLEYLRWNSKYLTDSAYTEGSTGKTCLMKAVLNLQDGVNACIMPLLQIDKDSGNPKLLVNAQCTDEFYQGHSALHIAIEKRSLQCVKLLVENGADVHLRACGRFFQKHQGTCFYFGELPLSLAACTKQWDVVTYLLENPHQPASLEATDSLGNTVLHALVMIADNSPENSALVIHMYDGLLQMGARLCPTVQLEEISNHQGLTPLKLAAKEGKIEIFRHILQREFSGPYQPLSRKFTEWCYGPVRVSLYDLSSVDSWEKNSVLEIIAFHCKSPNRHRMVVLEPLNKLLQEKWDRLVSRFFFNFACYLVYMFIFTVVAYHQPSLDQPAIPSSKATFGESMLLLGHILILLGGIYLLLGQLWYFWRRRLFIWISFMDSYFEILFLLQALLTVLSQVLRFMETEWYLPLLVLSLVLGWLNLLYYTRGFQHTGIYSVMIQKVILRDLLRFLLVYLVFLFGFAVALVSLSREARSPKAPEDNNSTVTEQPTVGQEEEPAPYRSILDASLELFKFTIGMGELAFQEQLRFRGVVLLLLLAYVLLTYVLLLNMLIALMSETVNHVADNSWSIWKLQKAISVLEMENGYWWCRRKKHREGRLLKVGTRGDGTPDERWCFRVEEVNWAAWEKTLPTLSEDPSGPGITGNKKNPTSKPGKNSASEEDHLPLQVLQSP

A3 (h) = target: T4, A3 (h) (Homo sapiens, UniProt P0DMS8); experiment: CEREP panel; type: binding; settings: 10 µM
T4 construct: CEREP
T4 sequence (P0DMS8 1-318): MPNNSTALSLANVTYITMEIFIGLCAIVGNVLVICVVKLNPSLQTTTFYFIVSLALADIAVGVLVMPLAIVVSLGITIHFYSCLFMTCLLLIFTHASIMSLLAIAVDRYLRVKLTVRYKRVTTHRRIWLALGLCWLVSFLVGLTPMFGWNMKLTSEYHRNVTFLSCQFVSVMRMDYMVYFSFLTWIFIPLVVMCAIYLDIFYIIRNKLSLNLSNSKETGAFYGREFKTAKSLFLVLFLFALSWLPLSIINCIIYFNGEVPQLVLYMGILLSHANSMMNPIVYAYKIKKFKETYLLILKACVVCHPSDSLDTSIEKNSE

BZD (central) = type: binding; settings: 10 µM
BZD (peripheral) = target: T5, BZD (peripheral) (Rattus norvegicus, UniProt P16257); experiment: CEREP panel; type: binding; settings: 10 µM
T5 construct: CEREP
T5 sequence (P16257 whole entry): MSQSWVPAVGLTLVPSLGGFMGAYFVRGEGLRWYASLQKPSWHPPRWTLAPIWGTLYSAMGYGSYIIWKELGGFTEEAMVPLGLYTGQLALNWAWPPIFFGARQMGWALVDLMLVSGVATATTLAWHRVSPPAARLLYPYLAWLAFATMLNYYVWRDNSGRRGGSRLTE

[3] = tested on: Ca2+ channel (verapamil site); experiment: CEREP panel; type: binding; settings: 10 µM
[4] = i.v., mice; for C0: 1.0-2.0 mg/kg, extrapolated
hCB2R = hCB2R (Homo sapiens, UniProt P34972); parameters: expressed in transfected cells; host or cells: Flp-In-293 (Invitrogen #R750-07), pcDNA5/FRT
hCB2R, sequence (P34972 whole entry): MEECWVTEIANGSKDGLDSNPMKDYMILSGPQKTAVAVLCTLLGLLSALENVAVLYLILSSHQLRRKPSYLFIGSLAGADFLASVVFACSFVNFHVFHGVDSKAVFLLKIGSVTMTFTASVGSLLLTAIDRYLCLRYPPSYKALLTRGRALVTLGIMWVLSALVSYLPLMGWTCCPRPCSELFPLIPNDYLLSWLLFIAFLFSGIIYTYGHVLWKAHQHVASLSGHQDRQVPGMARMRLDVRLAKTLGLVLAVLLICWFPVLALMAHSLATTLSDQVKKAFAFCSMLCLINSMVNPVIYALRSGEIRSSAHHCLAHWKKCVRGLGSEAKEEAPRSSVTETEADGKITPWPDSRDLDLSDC

T1 sequence (P21554 whole entry): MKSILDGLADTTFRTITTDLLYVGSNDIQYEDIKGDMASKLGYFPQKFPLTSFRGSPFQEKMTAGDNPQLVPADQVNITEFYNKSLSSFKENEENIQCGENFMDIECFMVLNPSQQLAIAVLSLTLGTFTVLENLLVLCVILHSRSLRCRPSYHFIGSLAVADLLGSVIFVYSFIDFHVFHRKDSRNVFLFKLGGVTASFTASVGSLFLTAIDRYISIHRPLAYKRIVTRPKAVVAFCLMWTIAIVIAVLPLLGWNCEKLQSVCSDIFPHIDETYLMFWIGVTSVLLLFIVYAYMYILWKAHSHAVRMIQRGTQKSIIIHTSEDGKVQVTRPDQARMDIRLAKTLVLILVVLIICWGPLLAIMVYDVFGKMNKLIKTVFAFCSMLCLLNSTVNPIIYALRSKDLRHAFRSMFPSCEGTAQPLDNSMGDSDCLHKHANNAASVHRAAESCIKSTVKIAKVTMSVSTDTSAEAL

In the case of CCCCCCC(C)(C)c1cc(OC)c(C2=C[C@H]3CC[C@]2(CO)C3(C)C)c(OC)c1 [HU910], the “Emax ± SEM pERK hCB1R” value (hCB1R [1]) is reported as 12 ± 4, the “pEC50 ± SEM pERK hCB1R” value (hCB1R [1]) is reported as less than 4 and the “pEC50 ± SEM GIRK hCB1R” value (hCB1R [2]) is reported as less than 5. For the same compound, the “Emax ± SEM GIRK hCB1R” value (hCB1R [2]; normalized to CP55940) was 7 ± 5%, the “TRPV1 Efficacy (% ionomycin 4μM)” value (Human recombinant TRPV1) was less than 10% and the IC50 (Human recombinant TRPV1) was greater than 100 µM. For the same compound, the “TRPV2 Efficacy (% ionomycin 4μM)” value (Rat recombinant TRPV2) was less than 10%, the IC50 (Rat recombinant TRPV2) was greater than 100 µM and the “% inhibition A3 (h)” value (A3 (h)) was 62%. For the same compound, the “% inhibition BZD (central)” value (BZD (central)) was 0%, the “% inhibition BZD (peripheral)” value (BZD (peripheral)) was -11% and the “% inhibition Ca2+ channel (verapamil site)” value [3] was 7%. For the same compound, the AUCinf [4] was 6060 ng·h/mL, the AUCinf/dose [4] was 6060 kg·ng·h/mL/mg and the AUClast [4] was 5960 ng·h/mL. For the same compound, the CL [4] was 2.83 mL/min/kg, the T1/2 [4] was 7.4 h and 7 h and the C0 [4] was 55600 ng/mL. The “GIRK-GTPγS bias factor (BF)” value (hCB2R; hCB2R) was 0.31, the “GIRK-GTPγS ΔΔlogR” value (hCB2R; hCB2R) was -0.51 and the “GIRK-cAMP bias factor (BF)” value (hCB2R; hCB2R) was 2.42. For the same compound, the “GIRK-cAMP ΔΔlogR” value (hCB2R; hCB2R) was 0.38 ± 0.20, the “GTPγS-cAMP bias factor (BF)” value (hCB2R; hCB2R) was 7.73 and the “GTPγS-cAMP ΔΔlogR” value (hCB2R; hCB2R) was 0.89 ± 0.31. The “LogR GIRK” value (hCB2R; hCB2R) was 5.90, the “LogR GTPγS” value (hCB2R; hCB2R) was 6.82 and the “LogR cAMP” value (hCB2R; hCB2R) was 8.37. The “LogR pERK” value (hCB2R; hCB2R) was 6.94, the “LogR β-AR” value (hCB2R; hCB2R) was 7.72 and the “pERK-GIRK bias factor (BF)” value (hCB2R; hCB2R) was 0.73. The “pERK-GIRK ΔΔlogR” value (hCB2R; hCB2R) was -0.13, the “pERK-GTPγS bias factor (BF)” value (hCB2R; hCB2R) was 0.23 and the “pERK-GTPγS ΔΔlogR” value (hCB2R; hCB2R) was -0.64. For the same compound, the “pERK-cAMP bias factor (BF)” value (hCB2R; hCB2R) was 1.77, the “pERK-cAMP ΔΔlogR” value (hCB2R; hCB2R) was 0.25 ± 0.28 and the “β-AR-GIRK bias factor (BF)” value (hCB2R; hCB2R) was 15.07. For the same compound, the “β-AR-GIRK ΔΔlogR” value (hCB2R; hCB2R) was 1.18 ± 0.22, the “β-AR-GTPγS bias factor (BF)” value (hCB2R; hCB2R) was 4.71 and the “β-AR-GTPγS ΔΔlogR” value (hCB2R; hCB2R) was 0.67 ± 0.32. For the same compound, the “β-AR-cAMP bias factor (BF)” value (hCB2R; hCB2R) was 36.90, the “β-AR-cAMP ΔΔlogR” value (hCB2R; hCB2R) was 1.57 ± 0.15 and the “β-AR-pERK bias factor (BF)” value (hCB2R; hCB2R) was 20.56. The “β-AR-pERK ΔΔlogR” value (hCB2R; hCB2R) was 1.31 ± 0.29, the “ΔLogR GIRK” value (hCB2R; hCB2R, reference CP55940) was -1.96 and the “ΔLogR GTPγS” value (hCB2R; hCB2R, reference CP55940) was -1.46. The “ΔLogR cAMP” value (hCB2R; hCB2R, reference CP55940) was -2.35, the “ΔLogR pERK” value (hCB2R; hCB2R, reference CP55940) was -2.1 and the “ΔLogR β-AR” value (hCB2R; hCB2R, reference CP55940) was -0.78. The “RE GIRK” value (hCB2R; hCB2R, relative effectiveness) was 0.01, the “RE GTPγS” value (hCB2R; hCB2R, relative effectiveness) was 0.03 and the “RE cAMP” value (hCB2R; hCB2R, relative effectiveness) was 0.005. For the same compound, the “RE pERK” value (hCB2R; hCB2R, relative effectiveness) was 0.01 and the “RE β-AR” value (hCB2R; hCB2R, relative effectiveness) was 0.16.
With CCCC(C)(C)c1ccc2c(c1)OC(C)(C)[C@@H]1CC=C(C)C[C@@H]21 [JWH133] the “Emax ± SEM pERK hCB1R” value (hCB1R [1]) was 10 ± 3, the “pEC50 ± SEM pERK hCB1R” value (hCB1R [1]) was less than 4 and the “Emax ± SEM GIRK hCB1R” value (hCB1R [2]) was 5 ± 1. The “pEC50 ± SEM GIRK hCB1R” value (hCB1R [2]) was less than 5, the “TRPV1 Efficacy (% ionomycin 4μM)” value (Human recombinant TRPV1) was 24.6% and the IC50 (Human recombinant TRPV1) was 77.7 ± 3 µM. For the same compound, the EC50 (Human recombinant TRPV1; read-out: TRPV1 Potency EC50) was 8.2 µM, the “TRPV2 Efficacy (% ionomycin 4μM)” value (Rat recombinant TRPV2) was less than 10% and the IC50 (Rat recombinant TRPV2) was greater than 100 µM. For the same compound, the “% inhibition A3 (h)” value (A3 (h)) was -26%, the “% inhibition BZD (central)” value (BZD (central)) was -22% and the “% inhibition BZD (peripheral)” value (BZD (peripheral)) was -1%. For the same compound, the “% inhibition Ca2+ channel (verapamil site)” value [3] was 1%, the AUCinf [4] was 1750 ng·h/mL and the AUCinf/dose [4] was 1090 kg·ng·h/mL/mg. The AUClast [4] was 1650 ng·h/mL, the CL [4] was 15.3 mL/min/kg and the T1/2 [4] was 1.1 h and 1 h. The Vss [4] was 1.32 L/kg and 1 to 3 L/kg, the C0 [4] was 3870 ng/mL and the “GIRK-GTPγS bias factor (BF)” value (hCB2R) was 1.32. For the same compound, the “GIRK-GTPγS ΔΔlogR” value (hCB2R) was 0.12 ± 0.57, the “GIRK-cAMP bias factor (BF)” value (hCB2R) was 3.54 and the “GIRK-cAMP ΔΔlogR” value (hCB2R) was 0.55 ± 0.42. The “GTPγS-cAMP bias factor (BF)” value (hCB2R) was 2.67, the “GTPγS-cAMP ΔΔlogR” value (hCB2R) was 0.43 ± 0.40 and the “LogR GIRK” value (hCB2R) was 5.98. For the same compound, the “LogR GTPγS” value (hCB2R) was 6.27, the “LogR cAMP” value (hCB2R) was 8.28 and the “LogR pERK” value (hCB2R) was 7.07. The “LogR β-AR” value (hCB2R) was 8.02, the “RE GIRK” value (hCB2R) was 0.01 and the “RE GTPγS” value (hCB2R) was 0.01. For the same compound, the “RE cAMP” value (hCB2R) was 0.004, the “RE pERK” value (hCB2R) was 0.01 and the “RE β-AR” value (hCB2R) was 0.33. For the same compound, the “pERK-GIRK bias factor (BF)” value (hCB2R) was 0.84, the “pERK-GIRK ΔΔlogR” value (hCB2R) was -0.08 and the “pERK-GTPγS bias factor (BF)” value (hCB2R) was 1.11. For the same compound, the “pERK-GTPγS ΔΔlogR” value (hCB2R) was 0.05 ± 0.46, the “pERK-cAMP bias factor (BF)” value (hCB2R) was 2.97 and the “pERK-cAMP ΔΔlogR” value (hCB2R) was 0.47 ± 0.26. The “ΔLogR GIRK” value (hCB2R) was -1.89, the “ΔLogR GTPγS” value (hCB2R) was -2.01 and the “ΔLogR cAMP” value (hCB2R) was -2.44. The “ΔLogR pERK” value (hCB2R) was -1.96, the “ΔLogR β-AR” value (hCB2R) was -0.48 and the “β-AR-GIRK bias factor (BF)” value (hCB2R) was 25.53. For the same compound, the “β-AR-GIRK ΔΔlogR” value (hCB2R) was 1.41 ± 0.43, the “β-AR-GTPγS bias factor (BF)” value (hCB2R) was 33.81 and the “β-AR-GTPγS ΔΔlogR” value (hCB2R) was 1.53 ± 0.41. For the same compound, the “β-AR-cAMP bias factor (BF)” value (hCB2R) was 90.36, the “β-AR-cAMP ΔΔlogR” value (hCB2R) was 1.96 ± 0.15 and the “β-AR-pERK bias factor (BF)” value (hCB2R) was 30.41. For the same compound, the “β-AR-pERK ΔΔlogR” value (hCB2R) was 1.48 ± 0.27.

— publication PMC5216056 (Nature Communications, 2017)
